These are literature values, as cited in patent US11896043B2, “Intestinal immune-enhancing agent, food product, and medicament” (DAICEL CORPORATION, priority 2017, dated 2024).

The subject of the data set is IgA.

In the case of `OC[C@H]1O[C@@H](O[C@H]2[C@H](O)[C@@H](O)[C@@H](O[C@]3(CO)O[C@H](CO)[C@@H](O)[C@@H]3O)O[C@@H]2CO)[C@H](O)[C@@H](O)[C@H]1O` [lactosucrose, 4^G-β-D-galactosylsucrose], the “amounts of IgA in the feces and cecal contents” value (2% and 5% LS added feed for 4 weeks) was “significantly increased”. Further, the “amount of IgA in the feces” value (after two weeks) is “decreased greatly”. The “amount of IgA in the feces relative to the control group” value (one week after ingestion) is given as “about twice”.
